Laboratory results taken from patent publication US20060121102A1, “Transdermal systems for the delivery of estrogens and progestins” (priority 2004, published 2006).

Test: In vitro skin permeation (flux), modified Franz diffusion cells
Type: in vitro ADME, human
Conditions: as permeation enhancer, compared with other enhancers such as lauryl lactate
Description: In vitro skin permeation studies were conducted using modified Franz diffusion cells to determine the delivery of estrogens and progestins from various drug polymer matrices. The release liner was peeled off of the drug matrix layer. The drug matrix layer was then gently pressed onto the stratum corneum of heat separated epidermis from human cadaver skin. This skin membrane with the backing and drug matrix affixed thereto was then mounted between the two half-cells and fastened with a clamp. The receiver compartment was filled with 1% hydroxylpropylcyclodextrin in normal saline solution with 0.01% sodium azide. The temperature was maintained at 32° C. Samples were taken at preset intervals and assayed by HPLC. The flux was calculated from the slope of the cumulative amounts of the drug in the receiver compartment versus time.

enhancing the transdermal flux of norelgestromin: particularly effective
SMILES: CC(O)C(=O)O (stereo not shown) [lactic acid]
